ChEMBL document CHEMBL4411276, “Chemistry-oriented synthesis (ChOS) and target deconvolution on neuroprotective effect of a novel scaffold, oxaza spiroquinone” (Eur J Med Chem, 2019)

Experiments:
[1] = target: T1, Serine/threonine-protein kinase haspin (Homo sapiens) (UniProt Q8TF76); assay: Inhibition of human haspin assessed as enzyme activity at 30 uM using Histone H3 as substrate by [gamma-33P]-ATP assay relative to control; parameters: scale not given: the % may be the effect or the level left
T1 sequence (whole entry): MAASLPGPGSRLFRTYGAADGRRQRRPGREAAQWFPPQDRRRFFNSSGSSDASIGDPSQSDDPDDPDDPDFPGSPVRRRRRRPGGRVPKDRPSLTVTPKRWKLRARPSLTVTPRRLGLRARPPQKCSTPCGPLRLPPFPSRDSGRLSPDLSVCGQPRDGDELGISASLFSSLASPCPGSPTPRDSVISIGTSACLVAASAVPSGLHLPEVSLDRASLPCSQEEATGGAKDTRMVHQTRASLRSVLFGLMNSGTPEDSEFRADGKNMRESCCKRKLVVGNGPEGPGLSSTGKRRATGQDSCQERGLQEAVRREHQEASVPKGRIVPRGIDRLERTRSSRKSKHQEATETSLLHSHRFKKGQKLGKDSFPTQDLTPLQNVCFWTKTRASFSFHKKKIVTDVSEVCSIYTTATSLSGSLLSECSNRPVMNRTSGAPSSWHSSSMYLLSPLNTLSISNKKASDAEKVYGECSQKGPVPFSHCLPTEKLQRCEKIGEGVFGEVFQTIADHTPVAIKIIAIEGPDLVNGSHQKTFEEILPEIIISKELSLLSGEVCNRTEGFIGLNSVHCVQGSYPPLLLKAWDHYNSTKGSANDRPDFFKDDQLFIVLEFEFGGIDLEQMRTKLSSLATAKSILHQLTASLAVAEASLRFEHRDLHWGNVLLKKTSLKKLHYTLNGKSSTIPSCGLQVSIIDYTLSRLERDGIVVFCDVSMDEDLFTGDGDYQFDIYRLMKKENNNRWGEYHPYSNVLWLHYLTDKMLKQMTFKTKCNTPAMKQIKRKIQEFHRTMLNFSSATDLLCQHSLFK

[2] = target: Protein kinase C beta type (Homo sapiens) (UniProt P05771); assay: Inhibition of human PKCb2 assessed as enzyme activity at 30 uM using Histone H1 as substrate by [gamma-33P]-ATP assay relative to control; parameters: scale not given: the % may be the effect or the level left
Protein kinase C beta type (Homo sapiens), sequence (P05771 2-671 limits assumed): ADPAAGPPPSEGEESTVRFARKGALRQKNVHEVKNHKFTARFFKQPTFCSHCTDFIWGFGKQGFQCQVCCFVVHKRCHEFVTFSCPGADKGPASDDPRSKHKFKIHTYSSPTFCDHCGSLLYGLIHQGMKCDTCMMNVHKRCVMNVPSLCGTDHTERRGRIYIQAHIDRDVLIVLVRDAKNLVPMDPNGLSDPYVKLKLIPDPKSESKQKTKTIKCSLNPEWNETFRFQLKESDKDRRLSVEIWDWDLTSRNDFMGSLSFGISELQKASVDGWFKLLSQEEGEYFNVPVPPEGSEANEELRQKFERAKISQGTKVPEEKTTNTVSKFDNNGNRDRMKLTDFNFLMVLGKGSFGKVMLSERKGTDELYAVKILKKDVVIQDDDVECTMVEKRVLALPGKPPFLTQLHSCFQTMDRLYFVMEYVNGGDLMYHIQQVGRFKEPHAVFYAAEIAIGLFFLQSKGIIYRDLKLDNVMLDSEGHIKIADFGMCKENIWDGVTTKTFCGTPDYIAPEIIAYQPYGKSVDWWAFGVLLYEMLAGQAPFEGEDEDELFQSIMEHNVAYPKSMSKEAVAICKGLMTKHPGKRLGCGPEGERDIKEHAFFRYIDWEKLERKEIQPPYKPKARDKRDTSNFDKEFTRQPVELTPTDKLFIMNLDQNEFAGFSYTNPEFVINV

[3] = target: Protein kinase C alpha type (Homo sapiens) (UniProt P17252); assay: Inhibition of human PKCalpha assessed as enzyme activity at 30 uM using ERMRPRKRQGSVRRRV as substrate by [gamma-33P]-ATP assay relative to control; parameters: scale not given: the % may be the effect or the level left
[4] = target: Cyclin-dependent kinase 1/cyclin B1 (Homo sapiens) (UniProt P06493+P14635); assay: Inhibition of human CDK1/cyclinB assessed as enzyme activity at 30 uM using Histone H1 as substrate by [gamma-33P]-ATP assay relative to control; format: protein-complex assay; parameters: scale not given: the % may be the effect or the level left
Cyclin-dependent kinase 1/cyclin B1 (Homo sapiens), sequence (P06493 whole entry, looked up): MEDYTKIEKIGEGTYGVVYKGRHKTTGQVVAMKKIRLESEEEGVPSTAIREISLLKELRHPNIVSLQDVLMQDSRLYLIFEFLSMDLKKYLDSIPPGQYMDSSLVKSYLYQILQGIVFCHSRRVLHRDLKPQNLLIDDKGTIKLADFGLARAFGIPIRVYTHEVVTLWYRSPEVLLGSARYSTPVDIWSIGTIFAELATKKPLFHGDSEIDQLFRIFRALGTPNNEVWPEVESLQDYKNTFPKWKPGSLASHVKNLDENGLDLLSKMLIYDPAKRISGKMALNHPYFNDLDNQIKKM
Cyclin-dependent kinase 1/cyclin B1 (Homo sapiens), sequence (P14635 whole entry, looked up): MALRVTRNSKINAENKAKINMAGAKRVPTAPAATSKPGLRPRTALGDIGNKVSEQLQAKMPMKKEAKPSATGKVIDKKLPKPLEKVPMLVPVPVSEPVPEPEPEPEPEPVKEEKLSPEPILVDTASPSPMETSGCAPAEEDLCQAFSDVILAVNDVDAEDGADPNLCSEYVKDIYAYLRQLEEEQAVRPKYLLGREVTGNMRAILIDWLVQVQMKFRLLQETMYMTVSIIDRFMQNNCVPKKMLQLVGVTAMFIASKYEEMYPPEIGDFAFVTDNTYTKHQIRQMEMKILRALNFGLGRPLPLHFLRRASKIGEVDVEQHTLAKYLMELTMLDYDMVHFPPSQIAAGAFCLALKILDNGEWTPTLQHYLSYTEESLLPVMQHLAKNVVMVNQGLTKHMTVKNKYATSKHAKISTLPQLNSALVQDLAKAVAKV

[5] = target: Mitogen-activated protein kinase 8 (Homo sapiens) (UniProt P45983); assay: Inhibition of human JNK1 assessed as enzyme activity at 30 uM using ATF2 as substrate by [gamma-33P]-ATP assay relative to control; parameters: scale not given: the % may be the effect or the level left
Mitogen-activated protein kinase 8 (Homo sapiens), sequence (P45983 whole entry): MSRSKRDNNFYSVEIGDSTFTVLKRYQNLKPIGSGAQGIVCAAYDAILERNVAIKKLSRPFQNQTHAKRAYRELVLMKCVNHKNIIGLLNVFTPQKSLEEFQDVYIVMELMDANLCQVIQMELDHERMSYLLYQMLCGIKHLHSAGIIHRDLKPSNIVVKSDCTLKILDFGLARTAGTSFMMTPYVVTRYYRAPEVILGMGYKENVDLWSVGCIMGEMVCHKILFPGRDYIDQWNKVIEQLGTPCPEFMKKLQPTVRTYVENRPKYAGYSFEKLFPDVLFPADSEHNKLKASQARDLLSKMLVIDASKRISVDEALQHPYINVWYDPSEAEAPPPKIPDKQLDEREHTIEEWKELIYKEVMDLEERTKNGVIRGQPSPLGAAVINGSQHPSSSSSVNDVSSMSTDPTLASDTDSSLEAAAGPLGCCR

[6] = target: T2, NUAK family SNF1-like kinase 1 (Homo sapiens) (UniProt O60285); assay: Inhibition of human ARK5 assessed as enzyme activity at 30 uM using KKKVSRSGLYRSPSMPENLNRPR as substrate by [gamma-33P]-ATP assay relative to control; parameters: scale not given: the % may be the effect or the level left
T2 sequence (whole entry): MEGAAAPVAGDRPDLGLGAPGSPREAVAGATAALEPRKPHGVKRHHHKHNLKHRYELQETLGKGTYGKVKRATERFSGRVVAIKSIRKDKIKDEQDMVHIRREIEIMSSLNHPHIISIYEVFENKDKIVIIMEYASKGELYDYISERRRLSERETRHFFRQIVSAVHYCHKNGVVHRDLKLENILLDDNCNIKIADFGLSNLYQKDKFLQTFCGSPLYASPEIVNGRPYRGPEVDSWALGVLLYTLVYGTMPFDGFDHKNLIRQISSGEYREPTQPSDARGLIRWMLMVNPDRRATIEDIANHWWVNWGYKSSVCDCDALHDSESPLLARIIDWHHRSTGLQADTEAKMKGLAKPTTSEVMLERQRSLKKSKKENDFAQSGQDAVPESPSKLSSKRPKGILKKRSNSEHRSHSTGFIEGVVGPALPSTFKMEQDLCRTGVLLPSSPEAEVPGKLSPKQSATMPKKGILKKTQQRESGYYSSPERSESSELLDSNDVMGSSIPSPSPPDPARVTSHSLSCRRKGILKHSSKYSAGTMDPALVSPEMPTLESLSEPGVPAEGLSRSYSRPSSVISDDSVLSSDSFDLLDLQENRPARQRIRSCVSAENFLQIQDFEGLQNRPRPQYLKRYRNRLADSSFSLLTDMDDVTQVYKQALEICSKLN

[7] = target: CDK2/Cyclin O (Homo sapiens) (UniProt P24941+P22674); assay: Inhibition of human CDK2/cyclin-O assessed as enzyme activity at 30 uM using histone H1 as substrate by [gamma-33P]-ATP assay relative to control; format: protein-complex assay; parameters: scale not given: the % may be the effect or the level left
[8] = tested on: Mus musculus; assay: Cognition enhancing effect in ICR mouse model of scopolamine-induced memory impairment assessed as spontaneous alteration at 10 mg/kg by Y-maze test (reference value: 45.14%); format: functional
[9] = target: Serine/threonine-protein kinase 24 (Homo sapiens) (UniProt Q9Y6E0); assay: Inhibition of human MST3 assessed as enzyme activity at 30 uM using MBP as substrate by [gamma-33P]-ATP assay relative to control; parameters: scale not given: the % may be the effect or the level left
Serine/threonine-protein kinase 24 (Homo sapiens), sequence (Q9Y6E0 whole entry, looked up): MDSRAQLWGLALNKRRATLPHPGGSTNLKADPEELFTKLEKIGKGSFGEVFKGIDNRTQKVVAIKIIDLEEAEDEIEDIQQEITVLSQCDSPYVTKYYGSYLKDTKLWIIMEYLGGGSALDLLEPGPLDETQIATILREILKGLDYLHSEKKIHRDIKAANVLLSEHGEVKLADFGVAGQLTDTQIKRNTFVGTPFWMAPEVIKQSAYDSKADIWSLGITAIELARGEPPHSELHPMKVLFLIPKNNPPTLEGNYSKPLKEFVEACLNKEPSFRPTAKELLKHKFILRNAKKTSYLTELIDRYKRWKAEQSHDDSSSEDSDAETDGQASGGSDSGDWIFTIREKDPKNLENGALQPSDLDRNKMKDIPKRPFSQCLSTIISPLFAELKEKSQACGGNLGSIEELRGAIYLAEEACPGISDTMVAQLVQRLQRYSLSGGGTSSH

[10] = tested on: Mus musculus; assay: Effect on total entries in ICR mouse model of scopolamine-induced memory impairment at 5 mg/kg by Y-maze test; format: ADME, organism-based; settings: in vivo
[11] = target: Serine/threonine-protein kinase 25 (Homo sapiens) (UniProt O00506); assay: Inhibition of human STK25 assessed as enzyme activity at 30 uM using MBP as substrate by [gamma-33P]-ATP assay relative to control; parameters: scale not given: the % may be the effect or the level left
Serine/threonine-protein kinase 25 (Homo sapiens), sequence (O00506 whole entry, looked up): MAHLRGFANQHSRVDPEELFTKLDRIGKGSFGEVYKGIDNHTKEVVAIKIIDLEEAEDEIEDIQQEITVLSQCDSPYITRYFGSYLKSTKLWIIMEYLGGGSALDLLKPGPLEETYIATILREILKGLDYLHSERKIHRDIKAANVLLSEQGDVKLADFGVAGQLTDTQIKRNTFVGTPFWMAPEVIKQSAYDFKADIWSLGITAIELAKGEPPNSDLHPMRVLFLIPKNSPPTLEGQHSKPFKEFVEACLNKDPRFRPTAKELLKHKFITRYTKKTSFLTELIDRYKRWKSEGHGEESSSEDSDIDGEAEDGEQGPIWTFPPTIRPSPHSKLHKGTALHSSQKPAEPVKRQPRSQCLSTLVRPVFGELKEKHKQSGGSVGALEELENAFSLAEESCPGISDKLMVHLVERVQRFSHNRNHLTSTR

[12] = Cytotoxicity against mouse BV2 cells assessed as cell survival after 24 hrs by MTT assay relative to control; format: cell-based, BV-2; parameters: concentration or dose not given beside the values; settings: read-out: Survival

**Q.** With `O=C1C=CC2(C=C1)OCC(Cc1cc(C(F)(F)F)cc(C(F)(F)F)c1)C(=O)N2c1ccccc1` (configuration not stated) as the compound, how does the Activity [1] read?
**A.** The Activity was 66.1 to 66.8%.

**Q.** And the Activity [2]?
**A.** Its Activity is 67.7 to 71.2%.

**Q.** What about the Activity [3] of the same compound?
**A.** The Activity was 44.8 to 46.5%.

**Q.** What about the Activity [4] of the same compound?
**A.** Its Activity is 45.4 to 46.5%.

**Q.** And the Activity [5]?
**A.** Its Activity is 35.6 to 36%.

**Q.** And the Activity [6]?
**A.** The Activity was 70.7 to 70.8%.

**Q.** What about the Activity [7] of the same compound?
**A.** The Activity was 42.3 to 43.8%.

**Q.** And the Activity [8]?
**A.** The Activity was 59.62%.

**Q.** What about the Activity [9] of the same compound?
**A.** The Activity was 57.6 to 58.2%.

**Q.** And the Activity [10]?
**A.** Its Activity is “Non-Toxic”.

**Q.** What about the Activity [11] of the same compound?
**A.** Its Activity is 66.9 to 67%.

**Q.** And the viability at 24 h [12]?
**A.** The viability at 24 h was 85.4%.
